In patent US20160331871A1, “Medical Devices Containing Nitroprusside and Antimicrobial Agents” (Teleflex Medical Incorporated, priority 2009, published 2016):

System: Pseudomonas aeruginosa
Assay: MIC/FIC determination of SNP alone and in combination with antimicrobial agents (96-well microtiter plate, OD 670 nm)
Format: cell-based, Pseudomonas aeruginosa ATCC 27853
Description: A few colonies of Pseudomonas aerugionsa ATCC 27853 were removed from secondary working cultures plated on Trypticase Soy Agar (hereinafter “TSA”) with 5% sheep's blood and added to 10 ml of Trypticase Soy Broth (hereinafter “TSB”). The vials were vortexed for approximately 30 seconds and incubated for 4 hours in a shaker incubator. Following incubation, they were removed and vortexed once more. The optical densities of the inoculum suspensions were read at a wavelength of 670 nm. The inoculum suspensions were subsequently diluted in sterile Cation Adjusted Mueller-Hinton Broth (hereinafter “CAMHB”) to a final concentration of 1-5×10^6 cfu/ml.
SNP was dissolved and diluted in sterile deionized water to get working concentrations of 1%, 0.9%, 0.8%, 0.7%, 0.6%, 0.5%, 0.4%, 0.3%, 0.2%, and 0.1% in the wells of a 96-well micro titer plate.
Chlorhexidine diacetate (hereinafter “CHA”) and gentian violet (hereinafter “GV”) were dissolved in sterile water. Rifampin (hereinafter “Rif”) was dissolved in dimethylsulfoxide (hereinafter “DMSO”). Silver nano particles were dispersed in sterile water.
A sterile 96 well micro titer plate was used to test the following: SNP alone and SNP in combination with CHA, GV, Rif, and Silver at concentrations as stated above. All tests were performed in triplicate.
Once all test wells had been filled, the lid of the plate was replaced and the plate was inserted into a Ziplock™ bag and sealed to reduce evaporation. Each plate was incubated without shaking at 37° C. for 18-46 hours depending on the microorganism.
After the appropriate incubation time had been met, the micro titer plate was removed from the incubator. The plate was then read on a Bio-Tek plate reader at a wavelength of 670 nm with the lid off.

Compound | MIC/FIC (SNP 0% (agent alone)) [PPM] | inhibitory concentration in combination with SNP as compared to alone | MIC/FIC (in combination with SNP 0.2%) [PPM] | MIC/FIC (in combination with SNP 0.4%) | MIC/FIC (in combination with SNP 0.6%) [PPM]
CO[C@H]1/C=C/O[C@@]2(C)Oc3c(C)c(O)c4c(O)c(c(/C=N/N5CCN(C)CC5)c(O)c4c3C2=O)NC(=O)/C(C)=C\C=C\[C@H](C)[C@H](O)[C@@H](C)[C@@H](O)[C@@H](C)[C@H](OC(C)=O)[C@@H]1C [Rifampin] | 16 | lower inhibitory concentrations | 16 | 2-4 PPM | 0
CN(C)c1ccc(C(=C2C=CC(=[N+](C)C)C=C2)c2ccc(N(C)C)cc2)cc1 [GV, gentian violet] | 32 | lower inhibitory concentrations | 4 | 4 PPM | 0
N=C(NCCCCCCNC(=N)NC(=N)Nc1ccc(Cl)cc1)NC(=N)Nc1ccc(Cl)cc1.Nc1ccc(P(=O)(O)O)cc1.Nc1ccc(P(=O)(O)O)cc1 [CHP, chlorhexidine dipalmitate] | 4 | – | 4 | 1 PPM | 0
CC(=O)O.CC(=O)O.NC(=N\CCCCCC/N=C(N)/N=C(\N)Nc1ccc(Cl)cc1)/N=C(\N)Nc1ccc(Cl)cc1 [CHA, Chlorhexidine diacetate] | – | lower inhibitory concentrations | – | – | –
